Laboratory results reported in paper PMC11157767 (Molecular Cancer, 2024).
Several values for one entry are separate records, joined by “and”; a condition that tells them apart may be missing. Identical values can stand only once. Like-named read-outs stand apart in the source and are kept apart here.

Assays:
[1] = Plasma pharmacokinetics in CD-1 nude mice (NCA); format: in vivo, mouse; details: for AUC / AUC(0-inf) / AUC(0-t) / CL/F / Cmax / Tmax / half-life / k el / Vd/F: CD-1 nude, mouse; for AUC: plasma, 25 mg/kg, read-out: total plasma AUC; for AUC(0-inf) / AUC(0-t) / CL/F / Cmax / Tmax / half-life / k el / Vd/F / Clast / Tlast: Plasma, NCA estimate; for Vd/F: read-out: Vz/F
Protocol: Fig. 2 TFG-MET-driven mouse model and pharmacokinetic profiles of MET inhibitors. a Schematic illustrating the method and utilized vectors to induce CRISPR/Cas9-mediated Trp53 deletion and TFG-MET overexpression following in utero electroporations. b H&E staining and Immunohistochemical analysis of a tumor generated by in utero electroporation, visualized by the HA-tag of TFG-MET. […] Three mice were analyzed per compound and time point. Error bars indicate the standard deviation. Dashed rectangles indicate time windows of radiation in the following preclinical allograft study
See Methods – Pharmacokinetics section for a description of abbreviations.

[2] = cited from earlier work
[3] = test system: TRIM24-MET-r cells; assay: 3-day dose-response assay, TRIM24-MET-r cells; format: cell-based; details: Homo sapiens
[4] = test system: pMET, pErk, pAkt; assay: Phosphoprotein IHC/western blot in TFG-MET allograft tumors (PD and Survival cohort); format: in vivo, mouse; details: for levels of phosphorylated MET, Erk and Akt in initial neoplasms: PD cohort, after second treatment, vs vehicle
Protocol: Error bars display standard error of the mean. Statistical significance was determined using a One-Way ANOVA followed by Tukey’s multiple comparisons test (*p<0.05, **p<0.01, ***p<0.001, ****p<0.0001)

[5] = test system: murine TFG-MET tumor cells; details: 7 days; RT 0Gy - 8Gy
Protocol: For both compounds 1 µM was used as positive control.
Compound concentrations comprised 10µM and 9 serial 1:3 dilutions in 4 replicates each and radiation doses ranged from 0Gy – 8Gy. […] Tested compound concentrations comprised 10 µM and 9 serial 1:3 dilutions in 4 replicates each. ZIP synergy scores were calculated based on cell numbers according to the CellTiter-Glo Assay by using the synergyfinder tool.

[6] = test system: murine TFG-MET tumor cells; assay: cells; details: Mus musculus
Source text: To calculate unbound EC50 and EC90 values, total values were multiplied with unbound drug fractions in culture media (Table 1).

[7] = test system: TFG-MET allograft tumors; assay: TFG-MET allograft preclinical trial in CD1 mice, Survival cohort (survival, BLI, body weight); format: in vivo, mouse; details: for BLI signal, individual mice: Murine allografts
Protocol: All treatments started 1 week after transplantation. Radio therapy was administered for 6 days, delivering 12 Gy total. Compound treatment was continued for 84 days. […] N = 8 (vehicle arms) or n = 10 (compound-treated arms), respectively. […] First row is depicted in another intensity scale to visualize tumors in all mice. The depicted scale bar indicates the range from 5x10^5-1x10^7 photons/sec/cm^2/sr.
Survival, body weight and tumor burden data from TFG-MET allograft-bearing mice. a,Schematic illustrating the preliminary in vivo study to determine the efficacy of RT alone. b, Survival curve of mice depicted in a. […] Each line represents one mouse. The ends of lines indicate the onset of neurological symptoms and thereby the endpoints.
Bioluminescence signals of in vivo trials.

[8] = In vitro protein binding assay, culture media; format: in vitro ADME; details: read-out: unbound drug fraction, Culture Media, AVG

In the case of CNC(=O)c1ccc(-c2cnc3ncc(Cc4ccc5ncccc5c4)n3n2)cc1F [Capmatinib], the “plasma concentration at 16 hours post-dose” value ([1]; CD1 nude mice) is reported as “below the detection limit”, the AUC [1] is reported as 16400 ng·h/mL and the AUC(0-inf) [1] is reported as 16400 ng·h/mL. The AUC(0-t) [1] was 14900 ng·h/mL, the CL/F [1] was 25.3 mL/min/kg and the Cmax [1] was 6200 ng/mL. For the same molecule, the Tmax [1] was 0.5 h, the half-life [1] was 2.27 h and the k el [1] was 8.47e-05 s⁻¹. It also gave a Vd/F [1] of 4.99 L/kg, a Clast [1] of 540 ng/mL and a Tlast [1] of 8 h. For the same molecule, the “mean steady total plasma AUC” value ([2]; humans, 400 mg BID orally) was 17,300 hr-ng/mL, the EC90 ([3]; 72 h, TRIM24-MET-r, 3-day dose response, read-out: EC90 Total) was 199 nM and the EC90 ([3]; TRIM24-MET-r, total value multiplied with unbound fraction in culture media, read-out: EC90 Unbound) was 141 nM. For the same molecule, the “levels of phosphorylated MET, Erk and Akt in initial neoplasms” value [4] was “greatly reduced levels”, the “animals with pMET and pErk reduced to background levels” value ([4]; Survival cohort, sacrificed under treatment) was 4/6 and the “combination effect with RT (ZIP synergy model)” value [5] was “additive effect with a trend towards synergy”. The EC90 ([6]; read-out: EC90 (nM) Total) was 29.9 nM, the EC90 ([6]; read-out: EC90 (nM) Unbound*) was 21.1 nM and the “BLI signal, individual mice” value ([7]; day 7, drug + RT) was 2.90E+08 and 3.10E+06 and 2.30E+07 and 4.30E+06 and 9.70E+05 and 1.20E+06 and 8.80E+06 and 3.20E+06 and 7.40E+06 and 6.80E+07. The “BLI signal, individual mice” value ([7]; day 7, drug alone) was 2.90E+06 and 5.20E+06 and 4.80E+06 and 3.30E+07, the “BLI signal, individual mice” value ([7]; day 10, drug + RT) was 1.80E+08 and 2.30E+06 and 4.90E+07 and 1.20E+07 and 6.70E+06 and 5.70E+05 and 1.10E+07 and 1.60E+06 and 6.20E+06 and 3.60E+07 and the “BLI signal, individual mice” value ([7]; day 10, drug alone) was 2.30E+06 and 7.80E+06 and 1.50E+07 and 6.40E+07. For the same molecule, the “BLI signal, individual mice” value ([7]; day 14, drug + RT) was 2.10E+08 and 3.20E+06 and 6.50E+07 and 1.30E+07 and 3.10E+05 and 1.60E+05 and 7.60E+06 and 6.60E+05 and 1.20E+08, the “BLI signal, individual mice” value ([7]; day 14, drug alone) was 8.30E+06 and 6.10E+07 and 2.00E+07 and 6.20E+07 and the “BLI signal, individual mice” value ([7]; day 21, drug + RT) was 1.10E+05 and 1.60E+05 and 1.30E+05 and 1.50E+07 and 5.10E+06 and 3.60E+06 and 6.20E+06 and 1.40E+05 and 9.20E+06. For the same molecule, the “BLI signal, individual mice” value ([7]; day 21, drug alone) was 8.80E+07 and 2.30E+08 and 7.60E+07 and 2.10E+08, the “BLI signal, individual mice” value ([7]; day 28, drug + RT) was 1.10E+05 and 1.60E+05 and 2.00E+05 and 2.20E+08 and 4.30E+07 and 3.30E+07 and 5.10E+07 and 1.50E+05 and 5.80E+06 and the “BLI signal, individual mice” value ([7]; day 28, drug alone) was 5.10E+08 and 5.20E+08 and 2.60E+08 and 1.90E+08. For the same molecule, the “BLI signal, individual mice” value ([7]; day 35, drug + RT) was 1.10E+05 and 1.50E+05 and 1.40E+05 and 9.90E+05 and 1.00E+07, the “BLI signal, individual mice” value ([7]; day 42, drug + RT) was 1.20E+05 and 1.30E+05 and 1.40E+05 and 2.50E+06 and 4.40E+07 and the “BLI signal, individual mice” value ([7]; day 49, drug + RT) was 1.30E+05 and 1.20E+05 and 7.40E+06. For the same molecule, the “BLI signal, individual mice” value ([7]; day 56, drug + RT) was 1.00E+05 and 1.40E+05 and 1.50E+05 and 6.60E+07 and 1.20E+08, the “BLI signal, individual mice” value ([7]; day 63, drug + RT) was 1.10E+05 and 2.00E+05 and 1.40E+05 and 1.90E+08 and the “BLI signal, individual mice” value ([7]; day 70, drug + RT) was 1.10E+05 and 1.20E+05. The “BLI signal, individual mice” value ([7]; day 77, drug + RT) was 1.02E+05 and 1.30E+05 and 1.10E+05, the “BLI signal, individual mice” value ([7]; day 84, drug + RT) was 1.06E+05 and 9.93E+04 and 1.20E+05 and the “BLI signal, individual mice” value ([7]; day 91, drug + RT) was 9.34E+04 and 1.44E+05 and 1.14E+05. For the same molecule, the “animals with reduction of tumor burden by week 3 (BLI)” value ([7]; capmatinib + RT (12 Gy)) was 8/10, the “increase of survival rate” value ([7]; capmatinib + RT (12 Gy), Survival cohort) was 3 fold and the “mice reaching 140 days after transplantation without residual tumor” value ([7]; capmatinib + RT arm, n = 10) was “Three”. For the same molecule, the fraction unbound [8] was 0.705.

For C[C@@H](Oc1cc(-c2cnn(C3CCNCC3)c2)cnc1N)c1c(Cl)ccc(F)c1Cl [Crizotinib], the “time of reaching Cmax” value ([1]; CD1 nude mice, post dose, brain and plasma not distinguished) was 4 h, the AUC [1] was 64700 ng·h/mL and the AUC(0-inf) [1] was 64700 ng·h/mL. The AUC(0-t) [1] was 42400 ng·h/mL, the CL/F [1] was 25.8 mL/min/kg and the Cmax [1] was 5040 ng/mL. It also gave a Tmax [1] of 1 h, a half-life [1] of 10.3 h and a k el [1] of 1.86e-05 s⁻¹. The Vd/F [1] was 23 L/kg, the Clast [1] was 1670 ng/mL and the Tlast [1] was 16 h. For the same molecule, the “mean steady total plasma AUC” value ([2]; pediatric solid tumors, maximum tolerated dose 280 mg/m^2 BID) was 6,990 hr-ng/mL, the EC50 ([3]; 72 h, read-out: EC50 Total) was 151 nM and the EC90 ([3]; 72 h, read-out: EC90 Total) was 5670 nM. For the same molecule, the EC50 ([3]; read-out: EC50 Unbound) was 93 nM, the EC90 ([3]; read-out: EC90 Unbound) was 3500 nM and the “levels of phosphorylated MET, Erk and Akt in initial neoplasms” value [4] was “less complete reduction”. For the same molecule, the “combination effect with RT (ZIP synergy model)” value [5] was “additive effect with a trend towards synergy”, the EC50 ([6]; read-out: EC50 (nM) Total) was 124 nM and the EC50 ([6]; read-out: EC50 (nM) Unbound*) was 76.2 nM. The EC90 ([6]; read-out: EC90 (nM) Total) was 612 nM, the EC90 ([6]; read-out: EC90 (nM) Unbound*) was 378 nM and the IC50 ([6]; read-out: in vitro IC50) was 124 nM. For the same molecule, the “BLI signal, individual mice” value ([7]; day 7, drug + RT) was 3.20E+07 and 3.90E+07 and 3.50E+08 and 1.10E+08 and 1.40E+07 and 8.30E+05 and 5.70E+06 and 1.70E+07 and 6.90E+05 and 4.00E+06, the “BLI signal, individual mice” value ([7]; day 7, drug alone) was 8.40E+06 and 1.40E+07 and 3.90E+08 and 2.00E+06 and 1.50E+07 and 3.90E+06 and 6.00E+06 and 4.10E+06 and 1.20E+06 and 8.20E+06 and the “BLI signal, individual mice” value ([7]; day 10, drug + RT) was 3.00E+07 and 4.60E+07 and 1.60E+08 and 1.80E+08 and 5.10E+07 and 1.20E+06 and 1.50E+07 and 6.00E+05 and 7.00E+06. For the same molecule, the “BLI signal, individual mice” value ([7]; day 10, drug alone) was 2.30E+07 and 6.50E+07 and 3.70E+08 and 3.10E+06 and 5.60E+07 and 6.20E+06 and 3.30E+07 and 1.30E+07 and 3.50E+06 and 2.70E+06, the “BLI signal, individual mice” value ([7]; day 14, drug + RT) was 1.90E+06 and 9.10E+07 and 9.70E+07 and 7.90E+07 and 7.60E+05 and 1.70E+08 and 5.90E+08 and 6.70E+05 and 3.10E+07 and the “BLI signal, individual mice” value ([7]; day 14, drug alone) was 5.20E+07 and 1.80E+09 and 3.60E+07 and 3.20E+08 and 6.50E+07 and 1.60E+08 and 1.70E+07 and 1.10E+07 and 2.00E+07. The “BLI signal, individual mice” value ([7]; day 21, drug + RT) was 1.00E+05 and 5.60E+06 and 1.60E+07, the “BLI signal, individual mice” value ([7]; day 21, drug alone) was 3.40E+07 and 2.10E+08 and 2.60E+08 and 2.60E+07 and 1.40E+08 and 8.10E+07 and the “BLI signal, individual mice” value ([7]; day 28, drug + RT) was 1.20E+08 and 2.10E+07. The “BLI signal, individual mice” value ([7]; day 28, drug alone) was 5.90E+07 and 2.20E+08 and 4.40E+08 and 3.00E+08, the “BLI signal, individual mice” value ([7]; day 35, drug + RT) was 1.30E+05 and 1.70E+07 and the “BLI signal, individual mice” value ([7]; day 35, drug alone) was 1.00E+07 and 8.70E+08 and 6.50E+08. For the same molecule, the “BLI signal, individual mice” value ([7]; day 42, drug + RT) was 1.30E+05, the “BLI signal, individual mice” value ([7]; day 42, drug alone) was 1.00E+07 and 1.20E+09 and the “BLI signal, individual mice” value ([7]; day 49, drug alone) was 1.90E+06. The “BLI signal, individual mice” value ([7]; day 56, drug + RT) was 1.30E+05, the “BLI signal, individual mice” value ([7]; day 56, drug alone) was 2.20E+06 and the “BLI signal, individual mice” value ([7]; day 63, drug alone) was 1.90E+07. For the same molecule, the “BLI signal, individual mice” value ([7]; day 70, drug + RT) was 1.00E+05, the “BLI signal, individual mice” value ([7]; day 70, drug alone) was 2.30E+07 and the “BLI signal, individual mice” value ([7]; day 84, drug + RT) was 1.26E+05. The “BLI signal, individual mice” value ([7]; day 91, drug alone) was 1.06E+05 and the fraction unbound [8] was 0.617.
